Assays:
[1] = test system: Human immunodeficiency virus 1; assay type: functional, organism-based; settings: Human immunodeficiency virus 1, RES056, MT4, 120 h
[2] = Cytotoxicity against human MT4 cells assessed as reduction in cell viability measured after 5 days by MTT assay; assay type: toxicity, cell-based; settings: time 5 day
[3] = test system: Human immunodeficiency virus 2; assay: Antiviral activity against HIV-2 ROD infected in human MT4 cells assessed as protection against virus-induced cytopathic effect incubated for 5 days by MTT assay; assay type: functional, organism-based; settings: Human immunodeficiency virus 2, ROD, MT4, 120 h
[4] = target: Human immunodeficiency virus type 1 reverse transcriptase (Human immunodeficiency virus 1, UniProt Q72547); assay: Inhibition of wild type HIV-1 Reverse transcriptase incubated for 1 hrs by ELISA analysis
in vitro [5] = settings: human, MT4 cells
Description: Selectivity index, ratio of CC50 for human MT4 cells to EC50 for wild type HIV-1 IIIB infected in human MT4 cells

in vitro [6] = settings: human, MT4 cells; remark: listed apart in the source
Description: Selectivity index, ratio of CC50 for human MT4 cells to EC50 for HIV-1 RES056 harboring RT K103N/Y181C mutant infected in human MT4 cells

in vitro [7] = settings: human, MT4 cells; remark: listed apart in the source
Description: Selectivity index, ratio of CC50 for human MT4 cells to EC50 for HIV-2 ROD infected in human MT4 cells

[8] = test system: Human immunodeficiency virus 1; assay: microbe, parasite or virus in culture; settings: Human immunodeficiency virus 1, IIIB, MT4, 120 h
Description: Antiviral activity against wild type HIV-1 IIIB infected in human MT4 cells assessed as protection against virus-induced cytopathic effect incubated for 5 days by MTT assay

[9] = test system: Human immunodeficiency virus 1; assay: Antiviral activity against NNRTI-resistant HIV-1 harboring RT K103N mutant infected in human MT4 cells assessed as protection against virus-induced cytopathic effect incubated for 5 days by MTT assay; assay type: functional, organism-based; settings: Human immunodeficiency virus 1, MT4, 120 h
[10] = test system: Human immunodeficiency virus 1; assay: Antiviral activity against NNRTI-resistant HIV-1 harboring RT E138K mutant infected in human MT4 cells assessed as protection against virus-induced cytopathic effect incubated for 5 days by MTT assay; assay type: functional, organism-based; settings: Human immunodeficiency virus 1, MT4, 120 h
[11] = test system: Human immunodeficiency virus 1; assay type: functional, organism-based; settings: Human immunodeficiency virus 1, MT4, 120 h
[12] = test system: Human immunodeficiency virus 1; assay: Antiviral activity against NNRTI-resistant HIV-1 harboring RT L100I mutant infected in human MT4 cells assessed as protection against virus-induced cytopathic effect incubated for 5 days by MTT assay; assay type: functional, organism-based; settings: Human immunodeficiency virus 1, MT4, 120 h
[13] = test system: Human immunodeficiency virus 1; assay type: functional, organism-based; settings: Human immunodeficiency virus 1, MT4, 120 h; remark: listed apart in the source
[14] = test system: Human immunodeficiency virus 1; assay type: functional, organism-based; settings: Human immunodeficiency virus 1, MT4, 120 h; remark: listed apart in the source
[15] = test system: Human immunodeficiency virus 1; assay: Potency index, ratio of Zidovudine EC50 to test compound EC50 for antiviral activity against NNRTI-resistant HIV-1 harboring RT K103N mutant infected in human MT4 cells assessed as protection against virus-induced cytopathic effect incubated for 5 days by MTT assay; assay type: functional; settings: time 5 day
[16] = test system: Human immunodeficiency virus 1; assay: Potency index, ratio of Nevirapine EC50 to test compound EC50 for antiviral activity against NNRTI-resistant HIV-1 harboring RT K103N mutant infected in human MT4 cells assessed as protection against virus-induced cytopathic effect incubated for 5 days by MTT assay; assay type: functional; settings: time 5 day
[17] = test system: Human immunodeficiency virus 1; assay: Potency index, ratio of Efavirenz EC50 to test compound EC50 for antiviral activity against NNRTI-resistant HIV-1 harboring RT K103N mutant infected in human MT4 cells assessed as protection against virus-induced cytopathic effect incubated for 5 days by MTT assay; assay type: functional; settings: time 5 day
[18] = test system: Human immunodeficiency virus 1; assay: Potency index, ratio of doravirine EC50 to test compound EC50 for antiviral activity against NNRTI-resistant HIV-1 harboring RT K103N mutant infected in human MT4 cells assessed as protection against virus-induced cytopathic effect incubated for 5 days by MTT assay; assay type: functional; settings: time 5 day

`Cc1cc(/C=C/C#N)cc(C)c1Oc1ccnc(Nc2ccc3occc3c2)n1` showed an EC50 [1] of 8.59 µM, a CC50 at 120 h [2] of 216 µM and an EC50 [3] of 45.5 µM. It also gave an IC50 [4] of 0.055 µM, a selectivity ratio (in vitro [5]) of 31100 and a selectivity ratio (in vitro [6]) of 25. The selectivity ratio (in vitro [7]) was 4.74 and the EC50 [8] was 0.007 µM.

`Cc1cc(/C=C/C#N)cc(C)c1Oc1ccnc(Nc2ccc3c(c2)C(=O)N(C)C3=O)n1` gave an EC50 [1] of 4.67 µM, a CC50 at 120 h [2] of over 294 µM and an EC50 [3] of 165 µM. It also gave an IC50 [4] of 0.054 µM, a selectivity ratio (in vitro [5]) of over 52500 and a selectivity ratio (in vitro [6]) of over 63. It also gave a selectivity ratio (in vitro [7]) of over 1.78 and an EC50 [8] of 0.006 µM.

In the case of `Cn1c(Cn2ccc(C(F)(F)F)c(Oc3cc(Cl)cc(C#N)c3)c2=O)n[nH]c1=O` [DORAVIRINE], the EC50 [9] is reported as 0.01 µM, the EC50 [10] is reported as 0.019 µM and the EC50 [11] is reported as 0.017 µM. The EC50 [12] was 0.008 µM, the EC50 [13] was 1.71 µM and the EC50 [1] was 0.05 µM. For the same compound, the EC50 [14] was 22.1 µM, the CC50 at 120 h [2] was over 47 µM and the EC50 [3] was over 47 µM. It also gave an IC50 [4] of 0.03 µM, a selectivity ratio (in vitro [5]) of over 6760 and a selectivity ratio (in vitro [6]) of over 931. It also gave an EC50 [8] of 0.007 µM.

For `Cc1cn([C@H]2C[C@H](N=[N+]=[N-])[C@@H](CO)O2)c(=O)[nH]c1=O` [ZIDOVUDINE], the EC50 [9] was 0.036 µM, the EC50 [10] was 0.047 µM and the EC50 [11] was 0.041 µM. The EC50 [12] was 0.014 µM, the EC50 [13] was 0.04 µM and the EC50 [1] was 0.035 µM. For the same compound, the CC50 at 120 h [2] was over 7.48 µM, the EC50 [3] was 0.039 µM and the selectivity ratio (in vitro [5]) was over 186. For the same compound, the selectivity ratio (in vitro [6]) was over 215, the selectivity ratio (in vitro [7]) was over 192 and the EC50 [8] was 0.04 µM.

`Cc1cc(/C=C/C#N)cc(C)c1Oc1ccnc(Nc2ccc3c(c2)OCO3)n1` gave an EC50 [1] of 2.22 µM, a CC50 at 120 h [2] of 40.8 µM and an EC50 [3] of 8.2 µM. It also gave an IC50 [4] of 0.026 µM, a selectivity ratio (in vitro [5]) of 5260 and a selectivity ratio (in vitro [6]) of 18. For the same compound, the selectivity ratio (in vitro [7]) was 4.98 and the EC50 [8] was 0.008 µM.

Compound `Cc1cc(/C=C/C#N)cc(C)c1Oc1ccnc(Nc2ccc3c(c2)NC(=O)C3)n1` has an EC50 [9] of 0.004 µM, an EC50 [10] of 0.046 µM and an EC50 [11] of 0.072 µM. For the same compound, the EC50 [12] was 0.054 µM, the EC50 [13] was over 50.3 µM and the EC50 [1] was 33.7 µM. It also gave an EC50 [14] of 14.4 µM, a CC50 at 120 h [2] of over 50.3 µM and an EC50 [3] of over 50.3 µM. It also gave an IC50 [4] of 0.053 µM, a selectivity ratio (in vitro [5]) of over 27600 and a selectivity ratio (in vitro [6]) of over 1. The EC50 [8] was 0.002 µM.

Work on `Cc1cc(/C=C/C#N)cc(C)c1Oc1ccnc(Nc2ccc3cnsc3c2)n1` yielded an EC50 [9] of 0.004 µM, an EC50 [10] of 0.014 µM and an EC50 [11] of 0.048 µM. The EC50 [12] was 0.014 µM, the EC50 [13] was 0.99 µM and the EC50 [1] was 0.45 µM. The EC50 [14] was 0.5 µM, the CC50 at 120 h [2] was 10.1 µM and the EC50 [3] was over 10.1 µM. The IC50 [4] was 0.019 µM, the selectivity ratio (in vitro [5]) was 4140 and the selectivity ratio (in vitro [6]) was 22. It also gave an EC50 [8] of 0.002 µM.

For `Cc1cc(/C=C/C#N)cc(C)c1Oc1ccnc(Nc2ccc3nsnc3c2)n1`, the EC50 [1] was 0.56 µM, the CC50 at 120 h [2] was 20.6 µM and the EC50 [3] was 1.26 µM. It also gave an IC50 [4] of 0.037 µM, a selectivity ratio (in vitro [5]) of 2850 and a selectivity ratio (in vitro [6]) of 37. The selectivity ratio (in vitro [7]) was 16.4 and the EC50 [8] was 0.007 µM.

With `Cc1cc(/C=C/C#N)cc(C)c1Oc1ccnc(Nc2ccc3nncn3c2)n1` the EC50 [9] was 0.002 µM, the EC50 [10] was 0.011 µM and the EC50 [11] was 0.032 µM. It also gave an EC50 [12] of 0.009 µM, an EC50 [13] of 0.81 µM and an EC50 [1] of 0.35 µM. It also gave an EC50 [14] of 0.58 µM, a CC50 at 120 h [2] of 21.9 µM and an EC50 [3] of 6.14 µM. For the same compound, the “Ratio EC50” value [15] was 19, the “Ratio EC50” value [16] was 2747 and the “Ratio EC50” value [17] was 50. The “Ratio EC50” value [18] was 5, the IC50 [4] was 0.025 µM and the selectivity ratio (in vitro [5]) was 11500. It also gave a selectivity ratio (in vitro [6]) of 182 and an EC50 [8] of 0.002 µM.

Compound `Cc1cc(/C=C/C#N)cc(C)c1Oc1ccnc(Nc2ccc3scnc3c2)n1` has an EC50 [9] of 0.006 µM, an EC50 [10] of 0.017 µM and an EC50 [11] of 0.068 µM. It also gave an EC50 [12] of 0.029 µM, an EC50 [13] of 1.37 µM and an EC50 [1] of 0.95 µM. The EC50 [14] was 1.23 µM, the CC50 at 120 h [2] was 50.2 µM and the EC50 [3] was 7.04 µM. The IC50 [4] was 0.043 µM, the selectivity ratio (in vitro [5]) was 26700 and the selectivity ratio (in vitro [6]) was 506. For the same compound, the selectivity ratio (in vitro [7]) was 7.13 and the EC50 [8] was 0.002 µM.

For `Cc1cc(/C=C/C#N)cc(C)c1Oc1ccnc(Nc2ccc3nccn3c2)n1`, the EC50 [9] was 0.008 µM, the EC50 [10] was 0.058 µM and the EC50 [11] was 0.21 µM. For the same compound, the EC50 [12] was 0.064 µM, the EC50 [13] was 3.91 µM and the EC50 [1] was 1.45 µM. For the same compound, the EC50 [14] was 0.96 µM, the CC50 at 120 h [2] was 28.7 µM and the EC50 [3] was over 28.7 µM. For the same compound, the IC50 [4] was 0.029 µM, the selectivity ratio (in vitro [5]) was 14600 and the selectivity ratio (in vitro [6]) was 20. The EC50 [8] was 0.002 µM.

From ChEMBL document CHEMBL6087416, “Discovery of novel fused-heterocycle-bearing diarypyrimidine derivatives as HIV-1 potent NNRTIs targeting tolerant region I for enhanced antiviral activity and resistance profile” (Eur J Med Chem, 2025)
